Values after ≈ are worked out from the molar mass of the structure shown. Where a SMILES comes first, the peptide text is derived from it. Bridges are numbered along the chain shown (N, C = ends). [ ]: non-standard residue; d: D form. The star is where a group is joined. Tetradecanoyl(3R-OH) = CCCCCCCCCCC[C@@H](O)CC(=O)*; Asp(3S-OH) = N[C@H](C(=O)O)[C@H](O)C(=O)O; Thr(4-Cl) = N[C@H](C(=O)O)[C@H](O)CCl; aThr = C[C@H](O)[C@H](N)C(=O)O; dDab = NCC[C@@H](N)C(=O)O; Dab = NCC[C@H](N)C(=O)O; Dhb = C/C=C(\N)C(=O)O
Columns and labels:
Candida albicans = assay: In vitro minimum inhibitory concentration against Candida albicans; assay type: functional
Mus musculus [1] = assay: Compound (at 20 mg/kg) was tested to induce tail vein irritation in mice; Negative; assay type: ADME, organism-based; parameters: dose 20 mg/kg; details: in vivo
Aspergillus fumigatus = assay: In vitro minimum inhibitory concentration against Aspergillus fumigatus; assay type: functional
Cryptococcus neoformans = assay: In vitro minimum inhibitory concentration against Cryptococcus neoformans; assay type: functional
Mus musculus [2] = assay: Compound (at 20 mg/kg) was tested to induce tail vein irritation in mice; Positive; assay type: ADME, organism-based; parameters: dose 20 mg/kg; details: in vivo

| Compound | MIC (Candida albicans) [µg/mL] | Tail vein toxicity (Mus musculus [1]) | MIC (Aspergillus fumigatus) [µg/mL] | MIC (Cryptococcus neoformans) [µg/mL] | Tail vein toxicity (Mus musculus [2]) |
| --- | --- | --- | --- | --- | --- |
| C/C=C1\NC(=O)[C@H]([C@@H](C)O)NC(=O)[C@@H](CCN)NC(=O)[C@H](CCCCN)N2C(=O)C[C@@H](NC(=O)[C@H](CCN)NC(=O)C(NC(=O)C[C@@H](O)CCCCCCCCCCC)COC(=O)[C@@H]([C@@H](O)CCl)NC(=O)[C@H]([C@H](O)C(=O)O)NC1=O)C2=O (stereo not given in full) | > 20 | Negative | > 20 | 10 (≈ 8.41 µM) | – |
| C/C=C1\NC(=O)[C@H]([C@H](C)O)NC(=O)[C@H](CCN)NC(=O)[C@H](CCCCN)NC(=O)[C@H]2CC(=O)O[C@H](C(=O)O)[C@H](NC1=O)C(=O)N[C@@H]([C@H](O)CCl)C(=O)OC[C@H](NC(=O)C[C@H](O)CCCCCCCCCCC)C(=O)N[C@H](CCN)C(=O)N2 | 5 (≈ 4.2 µM) | Negative | > 20 | 0.625 (≈ 0.525 µM) | – |
| C/C=C1\NC(=O)[C@H]([C@H](C)O)NC(=O)[C@H](CCN)NC(=O)[C@H](CCCCN)N2C(=O)C[C@H](NC(=O)[C@@H](CCN)NC(=O)[C@@H](NC(=O)C[C@H](O)CCCCCCCCCCC)COC(=O)/C(=C\CO)NC(=O)[C@H]([C@H](O)C(=O)O)NC1=O)C2=O | > 20 | – | > 20 | 20 (≈ 17.3 µM) | – |
| C/C=C1\NC(=O)[C@H]([C@H](C)O)NC(=O)[C@H](CCN)NC(=O)[C@H](CCCCN)NC(=O)[C@H](CC(=O)O)NC(=O)[C@@H](CCN)NC(=O)[C@@H](NC(=O)C[C@H](O)CCCCCCCCCCC)COC(=O)[C@H]([C@H](O)CCl)NC(=O)[C@H]([C@H](O)C(=O)O)NC1=O [PSEUDOMYCIN B] ({Tetradecanoyl(3R-OH)}-S[dDab]DK[Dab][aThr][Dhb][Asp(3S-OH)][Thr(4-Cl)]; ester 1-C) | 0.312 (≈ 0.258 µM) | – | 20 (≈ 16.6 µM) | < 0.01 | POSITIVE |

Source: ChEMBL document CHEMBL1133335, “Serendipitous synthesis of novel dehydro- and dechloro-pseudomycin B (PSB) derivatives” (Bioorg Med Chem Lett, 2000)
